Assay: Human HepG2 cell viability assay in 384 well format
Type: toxicity, cell-based
Set-up: dose 125 nL, time 70.5 hour; concentration not given beside the values
Details: HepG2 cells, read-out: Inhibition

SMILES	cytotoxicity at 70.5 h
CN(Cc1nccn1C)C(=O)C1COCC(=O)N1Cc1ccccc1 (stereo not drawn)	30.1%
CC(C)Cn1ncc2cc(C(=O)N(C)Cc3cccc(O)c3)cnc21	11.7%
CC(C)N(C(=O)c1csc(-c2ccoc2)n1)C1CCOCC1	-10.2%
Cc1n[nH]c(C2CN(Cc3ncc(C(C)C)o3)CCO2)n1 (stereo not drawn)	0.362%
CC(C)c1cccc(-n2cc(O)c(C(=O)NCCC(=O)N(C)C)n2)c1	-6.63%
O=C1CCCc2[nH]c(=O)c(C(=O)N(CC3CCCCC3)C3CC3)cc21	-7.98%
CN(CC1CCC1)C(=O)c1ccc(-c2nc(C3CC3)n[nH]2)cc1	-8.67%
CN(CC(O)C1CC1)C(=O)c1ccc(-c2nc(C3CC3)n[nH]2)cc1 (stereo not drawn)	-7.71%
CS(=O)(=O)c1cccc(S(=O)(=O)NCCCN2CCNC(=O)C2)c1	-5.37%
CC(=O)N(CCc1nc(-c2cc(C(N)=O)co2)cs1)C(C)C	2.32%
CC(C)c1nccn1CCC(=O)N1CCCC1c1cccn1C (stereo not drawn)	-3.96%
Cc1c(C(=O)N2CCC(C(O)c3ccc(Cl)cc3)CC2)cnn1C (stereo not drawn)	-3.74%
O=S(=O)(N1CCCCC1)N1CCOC2(CCCC2)C1	-0.763%
COCc1nc(CNc2cccc(-c3csc(C)n3)c2)cs1	-0.82%
COc1cccc(S(=O)(=O)CCNC(C)Cn2cccn2)c1 (stereo not drawn)	4.6%
CC(=O)N(CCc1nc(-c2cc(C(N)=O)oc2C)cs1)C(C)C	-8.28%
CCN(C(=O)CN1CCCC1c1cc(C)no1)c1ccccc1C (stereo not drawn)	-6.07%
OCCNC1CCc2cc3c(cc21)OCCO3 (stereo not drawn)	9.99%
CN(c1nc(CSc2nnc(Cn3cncn3)o2)cs1)C1CC1	0.758%
CC(NC(=O)Nc1nccs1)C(=O)NC1CCCC1 (stereo not drawn)	0.896%
CC(NC(=O)Nc1nncs1)C(=O)NC1CCCC1 (stereo not drawn)	-8.75%
CC(=O)NCCC(=O)NCc1ccc(Br)cc1Cl	-0.899%
Cc1cc(NC(=O)CN(c2ccccc2)C(C)C)on1	0.413%
N#Cc1ccnc(SCC2CN=C(N3CCOCC3)S2)c1 (stereo not drawn)	2.81%

SMILES	cytotoxicity at 70.5 h
CC(C)c1nc(CSc2nnc(Cn3cncn3)o2)cs1	0.92%
CSc1nc(C2CC2)nc(C)c1C(=O)NCc1ccco1	16.1%
Cc1nc(CNC(=O)NC2CCN(c3cccc(Cl)c3)C2)no1 (stereo not drawn)	-1.4%
O=C(NCCc1ccccn1)N1CCSC2(CCCCC2)C1	1.93%
Cn1nccc1CNC(=O)NC1CCN(c2ncccc2Cl)C1 (stereo not drawn)	-0.776%
Cc1[nH]ncc1C(C)NCc1ccc(F)cc1 (stereo not drawn)	-1.27%
COc1ccc(S(=O)(=O)NC2(CC(N)=O)CCC2)cc1	20.9%
Cc1nc(CNC(=O)NC2CCN(c3ncccc3Cl)C2)oc1C (stereo not drawn)	14.8%
Cc1nc(O)ccc1C(=O)N1CCCC1c1nc(-c2ccccc2)n[nH]1 (stereo not drawn)	0.447%
CN1CCN(Cc2cccc(NCc3cc[nH]n3)c2)CC1	-5.29%
c1ccc(NCc2ccsc2)c(Cn2cncn2)c1	-15.1%
CC(C)(C)c1ncc(CNc2ccccc2Cn2cncn2)s1	-8.54%
CC(CO)(NC(=O)Nc1nnc(C2CC2)s1)C1CCCCC1 (stereo not drawn)	-11.1%
Cn1ccc(C(=O)NCc2ccccc2Cn2ccnc2)cc1=O	-8.24%
CCC(CC)c1nnc(NC(=O)N2CCCC(NC(C)=O)C2)s1 (stereo not drawn)	-5.89%
COc1cc(OC)c(CNC(=O)NCC(=O)N2CCCC2)c(OC)c1	-6.53%
CC(C)NC(=O)C1CCN(C(C)C(=O)N2CCc3sccc3C2)CC1 (stereo not drawn)	-2.44%
CC(C)N(Cc1cnn(C)c1)C(=O)c1ccnc(N(C)C)c1	-7.21%
CNC(=O)CN1CCC(NC(=O)CC(C)CCc2ccccc2)CC1 (stereo not drawn)	12.1%
CCOc1ccc(C(=O)N(Cc2cnn(C)c2)C(C)C)cc1	-1.86%
Cn1ccc(C(=O)NCc2ccc(Cn3ccnc3)cc2)cc1=O	-1.16%
CCN(CC)CCCN1CCC(NC(=O)OC(C)(C)C)CC1	-4.36%
CCN1CCN(CCNc2nc3ccc(C)cc3c(=O)n2C)CC1	11.8%
CCOc1ccnc(N2CCN(C(=O)CCc3cnn(C)c3)CC2)n1	-4.83%

SMILES	cytotoxicity at 70.5 h
NC(=O)C1CCCN1Cc1ccccc1NC(=O)CC(F)(F)F (stereo not drawn)	-3.67%
Cc1ccc(C(=O)NS(C)(=O)=O)cc1S(C)(=O)=O	3.46%
CCCC(C)NC(=O)CCN1C(=O)CCc2cc(F)ccc21 (stereo not drawn)	2.38%
c1cncc(-c2nc3c(c(NCC4(c5ccncc5)CC4)n2)CCC3)c1	-0.48%
CCN(CC)C(=O)Nc1ccc(C(=O)N(C)C)c(C)c1	2.13%
CCOC(C)c1noc(CN(C)C(=O)c2cc3ccccn3c2)n1 (stereo not drawn)	-3.99%
CCOC(C)c1noc(CN(C)C(=O)c2ccncc2)n1 (stereo not drawn)	0.244%
CC(C)c1nsc(NC2CCOC3(CCCC3)C2)n1 (stereo not drawn)	-0.215%
Cc1nsc(NC2CCOC3(CCCCC3)C2)n1 (stereo not drawn)	-8.47%
COCCCOc1ccc(C(=O)N(Cc2cnn(C)c2)C(C)C)cn1	-7.46%
CN1CCCC(N(C)S(=O)(=O)c2cccc3ncccc23)C1 (stereo not drawn)	-1.85%
COCC(C)NC(=O)CCCn1cnc2ccccc2c1=O (stereo not drawn)	-5.09%
O=c1cc(CNCc2ccc3c(c2)OCO3)nc2ccccn12	-6.34%
O=C(CCC1CCCO1)NCCCC(=O)Nc1ccc(Cl)cc1 (stereo not drawn)	-12%
O=C(CCn1c(=O)oc2ccccc21)NCC(O)c1ccc(F)c(F)c1 (stereo not drawn)	-4.98%
Fc1ccc(C2CN(CCc3ccncc3)CCO2)cc1 (stereo not drawn)	14.4%
O=C(Cc1ccc(F)cc1)NCCNS(=O)(=O)C1CCCC1	-8.77%
c1ccc(C2CN(CCc3ccncc3)CCO2)cc1 (stereo not drawn)	-9.13%
Cc1csc(CNC(=O)Nc2ccc3c(c2)OCO3)n1	-7.99%
Cc1cc(C(=O)Nc2ccn(CCCN3CCCC3)n2)no1	1.38%
O=C(NCC(CO)Cc1cccc(OC(F)(F)F)c1)c1cnccn1 (stereo not drawn)	19.2%
CCc1cnc(CCNS(C)(=O)=O)s1	-6.67%
O=C(NCCn1cnnc1C1CC1)c1c(O)cc(F)cc1F	-11.9%
O=C(NCC1CCC2(CC1)OCCO2)c1cccc(-n2cccn2)c1	19.6%

SMILES	cytotoxicity at 70.5 h
CC(C)(C)OC(=O)N1CCN(S(=O)(=O)CCCC#N)C2(CCCCC2)C1	-4.48%
CC(C)(NS(C)(=O)=O)c1nc(-c2ccc(F)c(F)c2)no1	-5.95%
Cc1ccc(-c2noc(C(C)(C)NS(C)(=O)=O)n2)cc1F	-2.69%
Cc1occc1C(=O)N1CCCS1(=O)=O	-12%
CNC(=O)NCC(CO)Cc1ccccc1OC(F)(F)F (stereo not drawn)	-5.84%
COc1cccc(CNc2nnc(C(C)(C)C)o2)c1OC	-11.6%
Cc1cnc(CN2CCN(c3ccnc(-c4ccccc4)n3)CC2)cn1	-10.6%
O=S(=O)(N1CCCC1)N(Cc1ccccc1)CC1CCCO1 (stereo not drawn)	-7.82%
CCN(CC1CCCO1)S(=O)(=O)N1CCCCCC1 (stereo not drawn)	-8.65%
Cc1noc(C)c1CN1CCN(c2ccnc(-c3ccccc3)n2)CC1	26.5%
Clc1ccccc1C1CN(CCc2ccncc2)CCO1 (stereo not drawn)	-6.68%
CCc1nccn1CC(=O)Nc1cccc(C(=O)OC)c1	-5.31%
Cc1cc(C(=O)Nc2ccn(CCCN3CCCC3)n2)c(C)o1	-0.537%
CC1CN(CCc2ccncc2)CCO1 (stereo not drawn)	3.7%
CCC(=O)Nc1ccc(F)c(S(=O)(=O)NC(C)(C)C)c1	8.07%
Cc1cn2c(n1)C(CNCc1ccc(C)s1)CCC2 (stereo not drawn)	8.09%
Cc1ccccc1CN(C)C(=O)c1ccoc1	3.46%
Cc1ccc(CS(=O)(=O)Cc2nc(N)nc(N(C)C)n2)cc1	0.995%
CC(C)c1ccc(S(=O)(=O)Cc2nc(N)nc(N(C)C)n2)cc1	-1.91%
CC(C)(C)c1cnc(CN2CCC(NC(=O)Nc3ccccc3)CC2)o1	15.4%
CCCC(C)NC(=O)c1ccc(-c2ccco2)[nH]c1=O (stereo not drawn)	-2.99%
CCCN(CC1CC1)C(=O)Cn1ccccc1=O	-3.4%
CCC(=O)N1CCN(C(=O)NC2CCc3ccccc3C2)CC1 (stereo not drawn)	-4.1%
CC(C)(C)c1cnc(CN2CCC(NC(=O)C3CCOCC3)CC2)o1	-5%

SMILES	cytotoxicity at 70.5 h
Nc1cc2c(nn1)CCN(C(=O)c1csc(-c3ccco3)n1)C2	-4.34%
O=C(NC1CCc2ccccc2C1)N1CCN(C(=O)C2CCC2)CC1 (stereo not drawn)	-5.12%
COC(=O)c1ccc(C(=O)NCc2ccc(Br)cc2)cn1	-2.31%
Cn1cnc(-c2nc(C(=O)NCCN3CCOCC3)c3ccccn23)c1	-2.81%
Cn1cnc(-c2nc(C(=O)NCCN3CCCC3)c3ccccn23)c1	-5.67%
CCC(=O)N1CCc2onc(CNS(C)(=O)=O)c2C1	9.89%
CCn1c2c(ccc1=O)CC(NCc1cnn(C)c1)CC2 (stereo not drawn)	-4.95%
CS(=O)(=O)NCc1noc2c1CN(C(=O)C1CC1)CC2	-7.86%
CN1CCN(Cc2cn3c(n2)CN(Cc2ccccn2)CC3)CC1	-9.35%
CCOCC1c2c(ncn2C)CCN1C(=O)c1ccoc1 (stereo not drawn)	-17.6%
COC[C@@H]1CCC[C@@]12CN(C(=O)C1CCOCC1)CCO2	-7.08%
N#Cc1ccc(NC(=O)C2CSCN2)cc1 (stereo not drawn)	-6.81%
COC[C@@]12CCC[C@@H]1CN(C(=O)Cc1ccccn1)C2	9.13%
CCOC1COC2(CCN(CC3CCOCC3)CC2)C1 (stereo not drawn)	14.7%
CO[C@H]1CN(CC2CCOCC2)[C@@H]2CCCO[C@H]12	-7.16%
CS(=O)(=O)N1CCC2(CC1)CC(NCC1CC1)c1ccccc12 (stereo not drawn)	-7.3%
O=S(=O)(C1CC1)N1CCc2ncnc(N3CCCC3)c2CC1	-14.9%
COC1COC2(CCN(CC3CC3)CC2)C1 (stereo not drawn)	-12.5%
Cn1cc(CNC2CC3(CCN(S(C)(=O)=O)CC3)c3ccccc32)cn1 (stereo not drawn)	-11.7%
Cn1cc(CNC2CCc3c(ccc(=O)n3Cc3cccnc3)C2)cn1 (stereo not drawn)	-14.4%
COCC1CC2(CCN(c3ccccn3)CC2)CN1C(C)C (stereo not drawn)	-11.6%
CN1CCN(Cc2cn3c(n2)CN(Cc2ccc(F)cc2)CC3)CC1	-9.1%

Reference: ChEMBL document CHEMBL3507680, “University of Dundee, Gates Library screen for HepG2 cell viability”
